Patent publication EP4603105A1, “PHARMACEUTICAL COMPOSITION CONTAINING CYCLIC COMPOUND HAVING SELECTIVE KRAS INHIBITORY EFFECT AGAINST HRAS AND NRAS” (CHUGAI SEIYAKU KABUSHIKI KAISHA, priority 2022, dated 2024)
*1 amine or outer side, *2 acyl side, *3 side chain or, on linkers, in order; H or OH if unused. Where a SMILES comes first, the peptide text is derived from it. Bridges are numbered along the chain shown (N, C = ends). [ ]: non-standard residue; d: D form. The star is where a group is joined. hPhe(3,5-F2-4-CF3) = N[C@@H](CCc1cc(F)c(C(F)(F)F)c(F)c1)C(=O)O; hPhe(3-Cl-4-CF3) = N[C@@H](CCc1ccc(C(F)(F)F)c(Cl)c1)C(=O)O; X12 = C=CCN([C@@H](Cc1ccc(C(F)(F)F)cc1)C(=O)[*:2])[*:1]; NPrPhe(4-CF3) = CCCN[C@@H](Cc1ccc(C(F)(F)F)cc1)C(=O)O; NMeGly(cPent) = CN[C@H](C(=O)O)C1CCCC1; X3 = CCC[C@](C)(N[*:1])C(=O)[*:2]; Hyp = O=C(O)[C@@H]1C[C@@H](O)CN1; Gly(cBu) = N[C@H](C(=O)O)C1CCC1; NMeD = CN[C@@H](CC(=O)O)C(=O)O; NMeL = CN[C@@H](CC(C)C)C(=O)O; Morpholide = C1CN(*)CCO1; NMeA = CN[C@@H](C)C(=O)O; Ac5c = NC1(C(=O)O)CCCC1; Aze = O=C(O)[C@@H]1CCN1; Sar = CNCC(=O)O

Key:
[1] = system: human lung cancer strain NCI-H441; type: cell-based
How it was run: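 Signal came from […] measured per well once the reagent was added. Beforehand, cells were cultured at 37°C and 5% carbon dioxide on a compound series serially diluted in dimethyl sulfoxide.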

[2] = target: HRAS wild-type protein (Homo sapiens, UniProt P01112); experiment: Binding to HRAS by surface plasmon resonance (SPR), KD and KD ratio to KRAS
How it was run: (§1)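 Each cycle, GDP-bound biotin-Avi RAS was captured (~100–300 RU), compound concentrations were injected low to high for 75 s each at 100 µL/min, then the chip was regenerated. Buffer: HBS pH 7.4, 10 mM MgCl2, 10 µM GDP, 1 mM DTT, 4% DMSO; 30°C. KD from a 1:1 binding model.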

[3] = target: GDP-bound NRAS wild-type protein (Homo sapiens, UniProt P01111); experiment: Binding to NRAS by surface plasmon resonance (SPR), KD and KD ratio to KRAS
How it was run: as §1

[4] = ratio of KD value for HRAS wild-type protein to KD value for KRAS (SPR)
[5] = ratio of KD value for GDP-bound NRAS wild-type protein to KD value for KRAS (SPR)
[6] = ratio of KD for HRAS wild-type protein to KD for KRAS
[7] = ratio of KD for GDP-bound NRAS wild-type protein to KD for KRAS
[8] = ratio of the KD value with respect to HRAS wild-type protein to the KD value with respect to KRAS
[9] = ratio of the KD value with respect to GDP-bound NRAS wild-type protein to the KD value with respect to KRAS

Chain of GDP-bound NRAS wild-type protein (P01111 whole entry): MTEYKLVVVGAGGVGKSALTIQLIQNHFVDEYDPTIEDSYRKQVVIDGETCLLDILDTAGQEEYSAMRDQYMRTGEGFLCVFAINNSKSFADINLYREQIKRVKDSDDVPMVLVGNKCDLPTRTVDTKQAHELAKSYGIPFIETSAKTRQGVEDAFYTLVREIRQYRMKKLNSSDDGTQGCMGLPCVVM
Chain of HRAS wild-type protein (P01112 whole entry): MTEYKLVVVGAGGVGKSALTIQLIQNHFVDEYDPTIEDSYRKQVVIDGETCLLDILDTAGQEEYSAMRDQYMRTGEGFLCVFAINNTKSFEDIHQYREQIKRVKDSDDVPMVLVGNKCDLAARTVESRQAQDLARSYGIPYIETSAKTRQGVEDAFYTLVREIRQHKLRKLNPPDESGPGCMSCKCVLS

IC50 [1] [nM]	SMILES	HRAS /KRAS [2, 4]	NRAS /KRAS [3, 5]	HRAS /KRAS [2, 6]	NRAS /KRAS [3, 7]	HRAS /KRAS [2, 8]	NRAS /KRAS [3, 9]
44.8	CCO[C@@H]1C[C@H]2C(=O)NC3(CC(F)(F)C3)C(=O)N(C)[C@@H](C3CCCC3)C(=O)N(C)[C@H](C3CCC3)CC(=O)N(C)[C@@H](CC3CC3)C(=O)N[C@@H]([C@@H](C)CC)C(=O)N(C)CC(=O)N(C)[C@H]3C/C=C\CCN(C3=O)[C@@H](Cc3ccc(C(F)(F)F)cc3)C(=O)N(C)CC(=O)N[C@@H](CCc3cc(F)c(C(F)(F)F)c(F)c3)C(=O)N2C1 [PP1639]	A (a compound having 10 or more and less than 20 is denoted as A)	A (a compound having 10 or more and less than 20 is denoted as A)				
1.6	CCO[C@@H]1C[C@H]2C(=O)NC3(CC(F)(F)C3)C(=O)N(C)[C@@H](C3CCCC3)C(=O)N(C)[C@H](C(=O)N(C)C)CC(=O)N(C)[C@@H](CC3CCC3)C(=O)N[C@@H]([C@@H](C)CC)C(=O)N(C)CC(=O)N(C)[C@H]3C/C=C\CCN(C3=O)[C@@H](Cc3ccc(C(F)(F)F)cc3)C(=O)N(C)CC(=O)N[C@@H](CCc3cc(F)c(C(F)(F)F)c(F)c3)C(=O)N2C1 [PP1742]	A (a compound having 10 or more and less than 20 is denoted as A)	A (a compound having 10 or more and less than 20 is denoted as A)				
767	CC[C@H](C)[C@@H]1NC(=O)[C@H](COC)N(C)C(=O)C[C@@H](C(=O)N2CCOCC2)N(C)C(=O)[C@H](C2CCCC2)N(C)C(=O)C2(CCC2)NC(=O)[C@@H]2CCCN2C(=O)[C@H](CCc2cc(F)c(C(F)(F)F)c(F)c2)NC(=O)CN(C)C(=O)[C@H](Cc2ccc(C(F)(F)F)cc2)N2CCCCC[C@@H](C2=O)N(C)C(=O)[C@@H]2CCN2C1=O [PP0865]			B (a compound having 3 or more and less than 10 is denoted as B)	B (a compound having 3 or more and less than 10 is denoted as B)		
10.2	CCO[C@@H]1C[C@H]2C(=O)NC3(CCC3)C(=O)N(C)[C@@H](C3CCCC3)C(=O)N3CCC[C@@H]3CC(=O)N(C)[C@@H](CC)C(=O)N[C@@H]([C@@H](C)CC)C(=O)N(C)CC(=O)N(C)[C@H]3C/C=C\CCN(C3=O)[C@@H](Cc3ccc(C(F)(F)F)cc3)C(=O)N(C)CC(=O)N[C@@H](CCc3cc(F)c(C(F)(F)F)c(F)c3)C(=O)N2C1 [PP1097]			B (a compound having 3 or more and less than 10 is denoted as B)	B (a compound having 3 or more and less than 10 is denoted as B)		
38.2	CCCN1C(=O)CN(C)C(=O)CN(C)C(=O)[C@H]([C@@H](C)CC)NC(=O)[C@H](CC(C)C)N(C)C(=O)C[C@@H](C(=O)N(C)C)N(C)C(=O)[C@H](C2CCCC2)N(C)C(=O)[C@](C)(CCC)NC(=O)[C@@H]2CCCN2C(=O)[C@H](CCc2cc(F)c(C(F)(F)F)c(F)c2)NC(=O)CN(C)C(=O)[C@@H]1Cc1ccc(C(F)(F)F)cc1 [PP0737] ([NMeL]I[Sar][Sar][NPrPhe(4-CF3)][Sar][hPhe(3,5-F2-4-CF3)]P[X3][NMeGly(cPent)][NMeD]-NMe2; lactam N-11)					C (A compound having a KD ratio of 0.1 or more and less than 3 is denoted as C)	B (a compound having 3 or more and less than 10 is denoted as B)
8	CCC[C@H]1C(=O)N[C@@H]([C@@H](C)CC)C(=O)N(C)CC(=O)N(C)[C@H]2C/C=C\CCN(C2=O)[C@@H](Cc2ccc(C(F)(F)F)cc2)C(=O)N(C)CC(=O)N[C@@H](CCc2ccc3sc(F)c(C)c3c2)C(=O)N2C[C@H](OCC)C[C@H]2C(=O)NC2(CC(C)(C)C2)C(=O)N(C)[C@@H](C(CC)CC)C(=O)N(C)[C@H](C(=O)N(C)C)CC(=O)N1C [PP2892]			A (a compound having 10 or more and less than 20 is denoted as A)	A (a compound having 10 or more and less than 20 is denoted as A)		
0.9	CCCN1C(=O)CN(C)C(=O)CNC(=O)[C@H]([C@@H](C)CC)NC(=O)[C@H](CC(C)C)N(C)C(=O)C[C@@H](C(=O)N2CCOCC2)N(C)C(=O)[C@H](C2CCCC2)N(C)C(=O)C2(CCCC2)NC(=O)[C@@H]2C[C@@H](OCC)CN2C(=O)[C@H](CCc2ccc(C(F)(F)F)c(Cl)c2)NC(=O)CN(C)C(=O)[C@@H]1Cc1ccc(C(F)(F)F)cc1 [PP0396] ([NMeL]IG[Sar][NPrPhe(4-CF3)][Sar][hPhe(3-Cl-4-CF3)][Hyp](Et)[Ac5c][NMeGly(cPent)][NMeD]-Morpholide; lactam N-11)					C (A compound having a KD ratio of 0.1 or more and less than 3 is denoted as C)	B (a compound having 3 or more and less than 10 is denoted as B)

More lines, now with the values behind:

SMILES	IC50 [1] [nM]	HRAS /KRAS [2, 4]	NRAS /KRAS [3, 5]	HRAS /KRAS [2, 6]	NRAS /KRAS [3, 7]	HRAS /KRAS [2, 8]	NRAS /KRAS [3, 9]
CCO[C@@H]1C[C@H]2C(=O)NC3(CC(C)(C)C3)C(=O)N(C)[C@@H](CC3CCC3)C(=O)N(C)[C@H](C(=O)N(C)C)CC(=O)N(C)[C@@H](COC)C(=O)N[C@@H]([C@@H](C)CC)C(=O)N(C3CC3)CC(=O)N(C)[C@H]3C/C=C\CCN(C3=O)[C@@H](Cc3ccc(C(F)(F)F)cc3)C(=O)N(C)CC(=O)N[C@@H](CCc3ccc(Cl)c(Cl)c3)C(=O)N2C1 [PP2821]	90.4			A (a compound having 10 or more and less than 20 is denoted as A)	A (a compound having 10 or more and less than 20 is denoted as A)		
CCO[C@@H]1C[C@H]2C(=O)NC3(CC(C)(C)C3)C(=O)N(C)[C@@H](C(CC)CC)C(=O)N(C)[C@H](C(=O)N(C)C)CC(=O)N(C)[C@@H](CC3CC3)C(=O)N[C@@H]([C@@H](C)CC)C(=O)N(C)CC(=O)N(C)[C@H]3C/C=C\CCN(C3=O)[C@@H](Cc3ccc(C)cc3)C(=O)N(C)CC(=O)N[C@@H](CCc3cc(F)c(C(F)(F)F)c(F)c3)C(=O)N2C1 [PP2137]	16.8					A (a compound having 10 or more and less than 20 is denoted as A)	A (a compound having 10 or more and less than 20 is denoted as A)
CCCN1C(=O)CN(C)C(=O)CN(C)C(=O)[C@H](C2CCC2)NC(=O)[C@H](CC(C)C)N(C)C(=O)C[C@@H](C(=O)N2CCOCC2)N(C)C(=O)[C@H](C2CCCC2)N(C)C(=O)C2(CCCC2)NC(=O)[C@@H]2CCCN2C(=O)[C@H](CCc2ccc(C(F)(F)F)c(Cl)c2)NC(=O)CN(C)C(=O)[C@@H]1Cc1ccc(C(F)(F)F)cc1 [PP0250] ([NMeL][Gly(cBu)][Sar][Sar][NPrPhe(4-CF3)][Sar][hPhe(3-Cl-4-CF3)]P[Ac5c][NMeGly(cPent)][NMeD]-Morpholide; lactam N-11)	6.7			C (A compound having a KD ratio of 0.1 or more and less than 3 is denoted as C)	B (a compound having 3 or more and less than 10 is denoted as B)		
CCO[C@@H]1C[C@H]2C(=O)NC3(CCCC3)C(=O)N(C)[C@@H](C3CCCC3)C(=O)N(C)[C@H](C(=O)N(C)C)CC(=O)N(C)[C@@H](CC)C(=O)N[C@@H]([C@@H](C)CC)C(=O)N(C)CC(=O)N(C)[C@H]3CC(C)=C(C)CN(C3=O)[C@@H](Cc3ccc(C(F)(F)F)cc3)C(=O)N(C)CC(=O)N[C@@H](CCc3cc(F)c(C(F)(F)F)c(F)c3)C(=O)N2C1 [PP1050]	815			C (A compound having a KD ratio of 0.1 or more and less than 3 is denoted as C)	C (A compound having a KD ratio of 0.1 or more and less than 3 is denoted as C)		
CC[C@H](C)[C@@H]1NC(=O)[C@H](C2CC2)N(C)C(=O)C[C@@H](C(=O)N(C)CC)N(C)C(=O)[C@H](C2CCCC2)N(C)C(=O)C2(CCC2)NC(=O)[C@@H]2C[C@H](C)CN2C(=O)[C@H](CCc2ccc(C(F)(F)F)c(OC)c2)NC(=O)CN(C)C(=O)[C@H](Cc2ccc(C(F)(F)F)cc2)N2CC/C=C\C[C@@H](C2=O)N(C)C(=O)CN(C)C1=O [PP2069]	27.4					A (a compound having 10 or more and less than 20 is denoted as A)	AA (a compound having 20 or more is denoted as AA)
CCO[C@@H]1C[C@H]2C(=O)NC3(CCC3)C(=O)N(C)[C@@H](C3CCCC3)C(=O)N(C)[C@H](C(=O)N(C)C)CC(=O)N(C)[C@@H](CC)C(=O)N[C@@H]([C@@H](C)CC)C(=O)N(C)CC(=O)N(C)[C@H]3CCCCCN(C3=O)[C@@H](Cc3ccc(C(F)(F)F)cc3)C(=O)N(C)CC(=O)N[C@@H](CCc3cc(F)c(C(F)(F)F)c(F)c3)C(=O)N2C1 [PP0663]	22.7					B (a compound having 3 or more and less than 10 is denoted as B)	B (a compound having 3 or more and less than 10 is denoted as B)
C=CCN1C(=O)[C@@H]2CCN2C(=O)[C@H](C)N(C)C(=O)[C@H]([C@@H](C)CC)NC(=O)[C@H](CC(C)C)N(C)C(=O)C[C@@H](C(=O)N2CCOCC2)N(C)C(=O)[C@H](C2CCCC2)N(C)C(=O)C2(CCCC2)NC(=O)[C@@H]2CCCN2C(=O)[C@H](CCc2ccc(C(F)(F)F)c(Cl)c2)NC(=O)CN(C)C(=O)[C@@H]1Cc1ccc(C(F)(F)F)cc1 [PP0114] ([NMeL]I[NMeA][Aze][X12][Sar][hPhe(3-Cl-4-CF3)]P[Ac5c][NMeGly(cPent)][NMeD]-Morpholide; lactam N-11)	6.1			C (A compound having a KD ratio of 0.1 or more and less than 3 is denoted as C)	C (A compound having a KD ratio of 0.1 or more and less than 3 is denoted as C)		
CCO[C@@H]1C[C@H]2C(=O)NC3(CC(C)(C)C3)C(=O)N(C)[C@@H](C3CCCC3)C(=O)N(C)[C@H](C(=O)N(C)CC)CC(=O)N(C)[C@@H](CC(C)C)C(=O)N[C@@H]([C@@H](C)CC)C(=O)N(C)CC(=O)N(C)[C@H]3C/C=C\CCN(C3=O)[C@@H](Cc3ccc(C(F)F)cc3)C(=O)N(C)CC(=O)N[C@@H](CCc3ccc(C(F)(F)F)c(Cl)c3)C(=O)N2C1 [PP2829]	7.9			A (a compound having 10 or more and less than 20 is denoted as A)	A (a compound having 10 or more and less than 20 is denoted as A)		
